Legend:
NAMALWA cells = experiment: NAMALWA model of Burkitt's lymphoma: daratumumab alone or with CHOP; type: in vivo, NOD SCID mice
Description: (§1) 2×10^5 NAMALWA cells in matrigel were implanted into NOD SCID mice and treatment initiated when the main tumor size reached approximately 189 mm^3. Daratumumab was administered at 10 mg/kg once a week for three weeks. CHOP was administered daily on days 0-5 using following doses: cyclophosphoamide (CTX): 5 mg/kg i.v.; doxorubicin: 0.5 mg/kg i.v; vincristine: 0.08 mg/kg i.v., prednisone: 0.03 mg/kg p.o. Tumor volume was measured every three days. The Y-axis represents tumor volume±SEM
As a model for Burkitt's lymphoma, NAMALWA cells were utilized to study the efficacy of daratumumab alone or in combination with CHOP.
Namalwa cells were maintained in vitro in RPMI 1640 medium supplemented with fetal bovine serum (10% v/v), and L-glutamine (2 mM) at 37° C. in an atmosphere of 5% CO2 in air. The cells were routinely subcultured twice weekly by trypsin-EDTA treatment. The cells growing in an exponential growth phase were harvested and counted for tumor inoculation. The mice were injected with 2×10^5 Namalwa cells in 0.1 ml of PBS with matrigel (1:1) subcutaneously and the treatments were started when the mean tumor size reached 189 mm^3. The date of tumor cell inoculation is denoted as day 0. The major endpoint was to see if the tumor growth can be delayed or tumor-bearing mice can be cured. Tumor sizes were measured twice weekly and % TGI values calculated as described in Example 1.
Animals were divided in four treatment groups and were administered vehicle (isotype control), daratumumab, CHOP or daratumumab in combination with CHOP at dosages as described in Table 2.

[1] = system: ST1361 NHL-DLBCL (diffuse large B-cell lymphoma) PDX (patient derived xenograft) model; experiment: Patient-derived DLBCL xenograft ST1361: daratumumab alone or with CHOP or R-CHOP; type: in vivo, SCID/Beige mice; conditions: for % TGI (percent tumor growth inhibition): up to day 31, versus isotype control
Description: Resected DLBCL tumors were implanted in SCID/Beige mice. […] Daratumumab was administered at 20 mg/kg once a week for three weeks. CHOP and R-CHOP were administered once on day 0 except prednisone was administered on days 0-4 using the following regimens: CHOP: (cyclophosphoamide (CTX): 30 mg/kg i.v.; doxorubicin: 2.5 mg/kg i.v; vincristine: 0.4 mg/kg i.v); prednisone: 0.15 mg/kg p.o; R-CHOP: rituximab 20 mg/kg i.p. DAY 0. Tumor volume was measured every three days. The Y-axis represents tumor volume±SEM.
ST1361 is a NHL-DLBCL (diffuse large B-cell lymphoma) PDX (patient derived xenograft) model originating from a person chemo-naïve prior to metastatic sample collection.
Tumors were implanted in immunocompromised mice between 5-8 weeks of age. […] Daratumumab was dosed at 20 mg/kg once a week for 3 weeks. CHOP and R-CHOP at the concentrations described below were dosed once on day 0. CHOP (cyclophosphoamide: 30 mg/kg; doxorubicin: 2.5 mg/kg; vincristine: 0.4 mg/kg)-IV DAY 0; prednisone: 0.15 mg/kg DAYS 0-4; R-CHOP: rituximab 20 mg/kg-IP DAY 0. Beginning Day 0, tumor volume was measured twice weekly by digital caliper and data including individual and mean estimated tumor volumes (Mean TV±SEM) recorded for each group. The study was used to measure tumor growth inhibition until the control group was terminated and then continued as a survival study to evaluate the duration of daratumumab efficacy.
For the study, beginning Day 0, tumor dimensions were measured twice weekly by digital caliper and data including individual and mean estimated tumor volumes (mean TV±SEM) recorded for each group.

SU-DHL-6 cells = experiment: SU-DHL-6 cell line based NHL-DLBCL model: daratumumab alone or with CHOP; type: in vivo, NOD SCID mice
Description: as §1, with “5×10^6 SU-DHL-6” for “2×10^5 NAMALWA”, “cells” for “cells in matrigel”, “154” for “189”, “four” for “three”, “size” for “volume”, “plotted as Mean±SEM.” for “measured every three days. The Y-axis represents tumor volume±SEM”
SU-DHL-6 cell line based NHL-DLBCL model was utilized to study the efficacy of daratumumab alone or in combination with CHOP.
The SU-DHL-6 cells were maintained separately in vitro in RPMI1640 medium supplemented with 20% fetal bovine serum (v/v) at 37° C. in an atmosphere of 5% CO2 in air. The cells were routinely subcultured twice weekly. The cells growing in an exponential growth phase were harvested and counted for tumor inoculation. NOD SCID mice were γ-irradiated (200 rads) at 24 h before injection. Each mouse was inoculated subcutaneously at the right flank with SU-DHL-6 tumor cells (5×10^6) in 0.1 ml of PBS with matrigel (1:1) for tumor development. The treatments were started when the tumor size reaches approximately 154 mm^3. The date of tumor cell inoculation is denoted as day 0. Tumor sizes were measured twice weekly and % TGI values calculated as described in Example 1.
Animals were divided in four treatment groups and were administered vehicle, daratumumab, CHOP or daratumumab in combination with CHOP at dosages as described in Table 3.

For “Daratumumab: anti-CD38 antibody, IgG1/κ; VH SEQ ID NO: 4, VL SEQ ID NO: 5; heavy chain SEQ ID NO: 12, light chain SEQ ID NO: 13”, the Tumor growth delay (NAMALWA cells; at tumor size of 2,303 mm^3) was 2 days, the T/C value (NAMALWA cells; day 26 post tumor inoculation) was 70.46% and the “Antitumor activity in tumor size” value (NAMALWA cells; day 26 post tumor inoculation, versus vehicle) was “significant antitumor activity”. For the same substance, the Mean tumor size (NAMALWA cells; day 26 post tumor inoculation, daratumumab 10 mg/kg QW x 3, CHOP QD x 5) was 3,017 mm^3, the “Mean tumor volume (mm^3) ± SEM” value ([1]; day 31, daratumumab 20 mg/kg once a week for 3 weeks, CHOP/R-CHOP once on day 0, prednisone days 0-4, day 0 volume 145-146 mm^3) was 744 ± 236 mm^3 and the “% TGI (percent tumor growth inhibition)” value [1] was 71%. For the same substance, the “% TGI (percent tumor growth inhibition)” value ([1]; listed as daratumumab) was roughly 71%, the Tumor growth delay (SU-DHL-6 cells; at tumor size of 1,500 mm^3) was 3 days and the T/C value (SU-DHL-6 cells; day 32 post tumor inoculation) was 45.45%. The “Antitumor activity in tumor size” value (SU-DHL-6 cells; day 32 post tumor inoculation, versus vehicle) was “significant antitumor activity” and the Mean tumor size (SU-DHL-6 cells; day 32 post tumor inoculation, daratumumab 10 mg/kg QW x 4, CHOP QD x 5) was 1,946 mm^3.

Reference: patent US12060432B2, “Combination therapies with anti-CD38 antibodies” (Janssen Biotech, Inc., priority 2014, dated 2024)
